From ChEMBL document CHEMBL1136845, “Synthesis, biological activity and tubulin binding poses of 1-deoxy-9-(R)-dihydrotaxane analogs” (Bioorg Med Chem Lett, 2009) come the findings set out here.

Structures are written as SMILES. ≈ marks a conversion by molar mass, not a printed value.

One assay relates to A549. Kind of assay: Cytotoxicity against human A549 cells after 72 hrs by MTT assay. The format is functional, cell-based. The following applies: A549, 72 h. (In general: Tetrazolium dyes change colour on reduction, which living cells bring about.)
Another assay relates to A2780. Kind of assay: Cytotoxicity against human A2780 cells after 72 hrs by MTT assay. The format is functional, cell-based. The note with it: A2780, 72 h.
The nature of assay [1]: Inhibition of GTP-[…] tubulin polymerization.

Usually IC50 stands for the point on the concentration scale where inhibition reaches its midpoint. Read a low IC50 as greater potency in that assay. Consider `CC(=O)O[C@H]1C(=O)[C@@]2(C)[C@H]([C@H](OC(=O)c3ccccc3)[C@]3(O)C[C@H](OC(=O)[C@H](O)[C@@H](NC(=O)c4ccccc4)c4ccccc4)C(C)=C1C3(C)C)[C@]1(OC(C)=O)CO[C@@H]1C[C@@H]2O` [PACLITAXEL], for which the IC50 was found to be 0.29 ng/mL (≈ 0.34 nM) in the assay with A549 and 0.13 ng/mL (≈ 0.152 nM) in the assay on A2780. Besides, in assay [1], the ED50 came out at 520 nM.

`CC(=O)O[C@@]12CO[C@@H]1C[C@H](O)[C@]1(C)[C@@H]2[C@H](OC(=O)c2ccccc2)[C@@H]2C[C@H](OC(=O)[C@H](O)[C@@H](NC(=O)c3ccccc3)c3ccccc3)C(C)=C([C@@H](O)[C@@H]1O)C2(C)C`: the values for the IC50 in the assay with A549 and in the assay with A2780 were 0.18 ng/mL (≈ 0.226 nM) and 0.11 ng/mL (≈ 0.138 nM), respectively. In assay [1], this compound gave an ED50 of 1900 nM.

For `CC(=O)O[C@@]12CO[C@@H]1C[C@H](O)[C@]1(C)[C@@H]2[C@H](OC(=O)c2ccccc2)[C@@H]2C[C@H](OC(=O)[C@H](O)[C@@H](NC(=O)c3ccccc3)c3ccccc3)C(C)=C([C@H]3OC(C)(C)O[C@@H]31)C2(C)C`, the IC50 is 2.87 ng/mL (≈ 3.42 nM) in the assay with A549 and 1.54 ng/mL (≈ 1.84 nM) with A2780. The same compound had an ED50 in assay [1] of 5200 nM.
